How the values were obtained:
Format in all cases: cell-based
[1] = test system: SDMA (PRMT5 activity) in HAP1 MTAP-deleted cell line; test: SDMA in-cell western assay, HAP1 MTAP-deleted; conditions: for IC50 / IC90: Homo sapiens, SDMA in-cell western, HAP1 MTAP-deleted cells, 24 hours compound incubation; for Hap1 MTAP intact/deleted ratio: ratio of SDMA IC50 in HAP1 MTAP-intact to HAP1 MTAP-deleted cell line
Procedure: (§1) The SAM-cooperative PRMT5 inhibitor, GSK3326595, was sourced from SelleckChem and maintained as a 10 mM DMSO stock. All test compounds are maintained as 10 mM DMSO stocks
(§2) On Day 0, MTAP-intact or MTAP-deleted cells are seeded in a 384-well plate, and incubated in a humidified, 5% CO2 tissue culture incubator for 16-24 hours. On Day 1, the test compounds are dispensed to wells at defined concentrations using a Tecan D300e digital dispenser (n=4), and the volume of DMSO is normalized to highest class volume. Each plate includes wells dosed with defined concentrations of GSK33226595 as a plate control. The compounds are incubated with cells for 24 hours in a humidified, 5% CO2 tissue culture incubator.
(§3) On Day 2, the compound-treated cells are fixed with a final concentration of 4% formaldehyde. The cells are then washed/permeabilized with 1×PBS+0.1% Triton X-100, and then blocked with 5% goat serum/1×TBS.
(§4) The cells are washed with 1×PBS+0.1% Triton X-100, and then washed again with ddH20. The plates are then imaged using a NIR fluorescent imager (LiCor Odyssey).
(§5) For data analysis, the SDMA signal is normalized to the DRAQ5 signal. Assay background is determined by the signal from wells treated with 1 μM GSK3326595, and subtracted from every well. The data are plotted as % of the DMSO control wells for the MTAP-intact and the MTAP-deleted cell lines independently, and fitted to the 4-parameter logistic (4-PL) Hill equation with maximal effect constrained to 0. The fit was performed using GraphPad Prism or the default IC50 fitting procedure in Dotmatics Studies 5.4 as part of a customized data analysis protocol.

[2] = test system: HAP1 MTAP-deleted cell line; test: Viability assay (CellTiter-Glo), HAP1 MTAP-deleted; conditions: Homo sapiens, 168 h, HAP1 MTAP-deleted cells, 7 days
Procedure: All test compounds are maintained as 10 mM DMSO stocks.
On Day 0, MTAP-intact and MTAP-deleted cells are seeded in a 96-well plate, and incubated in a humidified, 5 or 10% CO2 tissue culture incubator for 16-24 hours. On Day 1, the test compounds are dispensed to wells at defined concentrations using a Tecan D300e digital dispenser (n=3), and the volume of DMSO is normalized to highest class volume (0.2%). The compound-treated plates are incubated for 7 days in a humidified, 5 or 10% CO2 tissue culture incubator.
On Day 7, the plates are removed from the tissue culture incubator and allowed to equilibrate to room temperature. Then either a ½% volume CellTiter-Glo Luminescent Cell Viability Assay reagent (Promega G7572) is added to each well, or the media is removed from every well and a 1:3 dilution of CellTiter-Glo 2.0 Cell Viability Assay reagent (Promega G9241) in 1×PBS is added. Ten minutes after addition, the luminescent signal is detected by an Envision plate reader. The data are plotted as % of the DMSO control wells for the MTAP-intact and the MTAP-deleted cell lines independently, and fitted to the 4-parameter logistic (4-PL) Hill equation with maximal effect constrained to 0. The fit was performed using GraphPad Prism or the default IC50 fitting procedure in Dotmatics Studies 5.4 as part of a customized data analysis protocol.

[3] = test system: SDMA (PRMT5 activity) in HAP1 MTAP-intact cell line; test: SDMA in-cell western assay, HAP1 MTAP-intact; conditions: Homo sapiens, HAP1, 24 h, SDMA in-cell western, HAP1 MTAP-intact cells, 24 hours compound incubation
Procedure: as §1, §2, §3, §4, §5

Row | IC50 [1] | IC90 [1] | IC50 [3] | SMILES | Hap1 MTAP intact/deleted ratio [1] | IC50 [2]
1 | < 5 nM | < 75 nM | > 50 nM | CCc1cc(NC(=O)C(=O)N2C[C@@H](C)CC[C@@H]2c2ccc3sc([C@@H]4C[C@@H](C)N(C)C4)nc3c2)cnc1N (mixture of isomers) [Compound 4, N-(6-amino-5-ethyl-3-pyridyl)-2-oxo-2-[(2R,5S)-5-methyl-2-[2-[rac-(3R,5R)-1,5-dimethylpyrrolidin-3-yl]-1,3-benzothiazol-5-yl]-1-piperidyl]acetamide] | A (“A” indicates an IC50 ratio greater than or equal to 30 fold) | < 100 nM
2 | < 5 nM | < 75 nM | > 50 nM | CCc1cc(NC(=O)C(=O)N2C[C@@H](C)CC[C@@H]2c2ccc3sc([C@@H]4CN(C)C[C@H]4C)nc3c2)cnc1N (mixture of isomers) [Compound 10, N-(6-amino-5-ethylpyridin-3-yl)-2-((2R,5S)-2-(2-(rac-(3S,4S)-1,4-dimethylpyrrolidin-3-yl)benzo[d]thiazol-5-yl)-5-methylpiperidin-1-yl)-2-oxoacetamide] | A (“A” indicates an IC50 ratio greater than or equal to 30 fold) | < 100 nM
3 | < 5 nM | < 75 nM | 5 to 50 nM | CCc1cc(NC(=O)C(=O)N2C[C@@H](C)CC[C@@H]2c2ccc3sc(C4CN(C)C(C)(C)C4)nc3c2)cnc1N (mixture of isomers) [Compound 13, N-(6-amino-5-ethylpyridin-3-yl)-2-((2R,5S)-5-methyl-2-(2-(1,5,5-trimethylpyrrolidin-3-yl)benzo[d]thiazol-5-yl)piperidin-1-yl)-2-oxoacetamide] | C (“C” indicates an IC50 ratio of less than 15 fold) | < 100 nM
4 | < 5 nM | < 75 nM | > 50 nM | CCc1cc(NC(=O)C(=O)N2C[C@@H](C)CC[C@@H]2c2ccc3sc([C@@H]4C[C@H](C)N(C)C4)nc3c2)cnc1N (racemic) [Compound 16, N-(6-amino-5-ethyl-3-pyridyl)-2-oxo-2-[(2R,5S)-5-methyl-2-[2-[rac-(3S,5R)-1,5-dimethylpyrrolidin-3-yl]-1,3-benzothiazol-5-yl]-1-piperidyl]acetamide] | A (“A” indicates an IC50 ratio greater than or equal to 30 fold) | < 100 nM
5 | < 5 nM | < 75 nM | 5 to 50 nM | CCc1cc(NC(=O)C(=O)N2C[C@@H](C)CC[C@@H]2c2ccc3sc(C[C@H]4CCN(C)C[C@@H]4C)nc3c2)cnc1N (racemic) [Compound 18, N-(6-amino-5-ethylpyridin-3-yl)-2-((2R,5S)-2-(2-((1,3-dimethylpiperidin-4-yl)methyl)benzo[d]thiazol-5-yl)-5-methylpiperidin-1-yl)-2-oxoacetamide] | A (“A” indicates an IC50 ratio greater than or equal to 30 fold) | < 100 nM
6 | < 5 nM | < 75 nM | 5 to 50 nM | CCc1cc(NC(=O)C(=O)N2C[C@@H](C)CC[C@@H]2c2ccc3sc([C@H]4CN5CC[C@@H]4C5)nc3c2)cnc1N (racemic) [Compound 21, 2-((2R,5S)-2-(2-(1-azabicyclo[2.2.1]heptan-3-yl)benzo[d]thiazol-5-yl)-5-methylpiperidin-1-yl)-N-(6-amino-5-ethylpyridin-3-yl)-2-oxoacetamide] | C (“C” indicates an IC50 ratio of less than 15 fold) | < 100 nM
7 | 5 to 50 nM | 75 to 125 nM | > 50 nM | CCc1cc(NC(=O)C(=O)N2C[C@@H](C)CC[C@@H]2c2cccc(OC3CCN(C)C3)c2)cnc1N (mixture of isomers) [Compound 39, N-(6-amino-5-ethylpyridin-3-yl)-2-((2R,5S)-5-methyl-2-(3-((1-methylpyrrolidin-3-yl)oxy)phenyl)piperidin-1-yl)-2-oxoacetamide] | A (“A” indicates an IC50 ratio greater than or equal to 30 fold) | < 100 nM
8 | < 5 nM | < 75 nM | > 50 nM | COc1ncc(NC(=O)C(=O)N2C[C@@H](C)CC[C@@H]2c2ccc3sc(CC(C)N4CCCC4)nc3c2)cc1C(N)=O (mixture of isomers) [Compound 57, 2-methoxy-5-(2-((2R,5S)-5-methyl-2-(2-(2-(pyrrolidin-1-yl)propyl)benzo[d]thiazol-5-yl)piperidin-1-yl)-2-oxoacetamido)nicotinamide] | A (“A” indicates an IC50 ratio greater than or equal to 30 fold) | < 100 nM
9 | < 5 nM | < 75 nM | > 50 nM | COc1ncc(NC(=O)C(=O)N2C[C@@H](C)CC[C@@H]2c2ccc3sc(C[C@H]4CCN(C)C[C@@H]4C)nc3c2)cc1C(N)=O (racemic) [Compound 64, 5-(2-((2R,5S)-2-(2-((1,3-dimethylpiperidin-4-yl)methyl)benzo[d]thiazol-5-yl)-5-methylpiperidin-1-yl)-2-oxoacetamido)-2-methoxynicotinamide] | A (“A” indicates an IC50 ratio greater than or equal to 30 fold) | < 100 nM
10 | 5 to 50 nM | < 75 nM | > 50 nM | CCc1cc(NC(=O)C(=O)N2C[C@@H](C)CC[C@@H]2c2ccc3sc(C4CN(C)CCN4C)nc3c2)cnc1N (mixture of isomers) [Compound 70, N-(6-amino-5-ethylpyridin-3-yl)-2-((2R,5S)-2-(2-(1,4-dimethylpiperazin-2-yl)benzo[d]thiazol-5-yl)-5-methylpiperidin-1-yl)-2-oxoacetamide] | B (“B” indicates an IC50 ratio greater than or equal to 15 fold but lower than 30 fold) | < 100 nM
11 | < 5 nM | < 75 nM | > 50 nM | COc1ncc(NC(=O)C(=O)N2C[C@@H](C)CC[C@@H]2c2ccc3sc(C4CN(C)C(C)(C)C4)nc3c2)cc1C(N)=O (mixture of isomers) [Compound 77, 2-methoxy-5-(2-((2R,5S)-5-methyl-2-(2-(1,5,5-trimethylpyrrolidin-3-yl)benzo[d]thiazol-5-yl)piperidin-1-yl)-2-oxoacetamido)nicotinamide] | A (“A” indicates an IC50 ratio greater than or equal to 30 fold) | < 100 nM
12 | – | – | – | [2H]C([2H])([2H])N1CCC(c2nc3cc([C@H]4CC[C@H](C)CN4C(=O)C(=O)Nc4cnc(OC)c(C(N)=O)c4)ccc3s2)CC1 [Compound 5, 2-methoxy-5-[[2-oxo-2-[(2R,5S)-5-methyl-2-[2-[1-(trideuteriomethyl)-4-piperidyl]-1,3-benzothiazol-5-yl]-1-piperidyl]acetyl]amino]pyridine-3-carboxamide] | – | < 100 nM
13 | < 5 nM | < 75 nM | > 50 nM | COc1ncc(NC(=O)C(=O)N2C[C@@H](C)CC[C@@H]2c2ccc3sc(C[C@H](C)N(C)C)nc3c2)cc1C(N)=O [Compound 98, 5-(2-((2R,5S)-2-(2-((S)-2-(dimethylamino)propyl)benzo[d]thiazol-5-yl)-5-methylpiperidin-1-yl)-2-oxoacetamido)-2-methoxynicotinamide] | A (“A” indicates an IC50 ratio greater than or equal to 30 fold) | –
14 | – | – | – | [2H][13C]([2H])([2H])N1CCC(c2nc3cc([C@H]4CC[C@H](C)CN4C(=O)C(=O)Nc4cnc(N)c(CC)c4)ccc3s2)CC1 [Compound 129, N-(6-amino-5-ethyl-3-pyridyl)-2-oxo-2-[(2R,5S)-5-methyl-2-[2-[1-(trideuterio(1^13C)methyl)-4-piperidyl]-1,3-benzothiazol-5-yl]-1-piperidyl]acetamide] | – | < 100 nM

— US20250171432A1, “COMPOUNDS AND METHODS OF USE” (Tango Therapeutics, Inc., priority 2022, published 2025)
